US9308210B2, “Method for modulating canonical Wnt pathway using folate and inositol” (University of South Florida, priority 2009, dated 2016)
Several values for one entry are separate records, joined by “and”; a condition that tells them apart may be missing. Identical values can stand only once. Counter-ions that a name gives are not always drawn.

Tests used:
[1] = tested on: C57BL/6 mouse embryos; assay: Doppler ultrasonography at E15.5 of mouse embryos exposed to Li or HCy on E6.75, FA rescue; format: in vivo; conditions: for Valve Regurgitation (percent of embryos): hydrochloride
Excerpt: To determine whether the results in the avian system would extend to the mammalian system, the inventors conducted studies in the mouse embryo. All mice were maintained according to protocols approved by the Institutional Animal Care and Use Committee at the University of South Florida. The C57BL/6 mouse strain (Jackson Laboratories, Bar Harbor, Me.) was used throughout the study. E0.5 was defined as the morning when the vaginal sperm plug was detected. Timed pregnant mice were randomly allocated to receive a single dose of 100 μl of 6.25 mg/ml Li chloride, as determined previously (Chen et al., 2008), 100 μl of 75 μM HCy, or 100 μl of 6.25 mg/ml sodium chloride (control group); all treatments were given intraperitoneally (i.p). On E15.5, the utero-placental circulation of the pregnant mice, and the central and peripheral circulations of the embryos were examined non-invasively in utero using Doppler ultrasonography (Gui et al., 1996; Linask and Huhta, 2000). Sixty-eight embryos were exposed to Li, 59 to HCy and 42 to physiological saline.
An HCy concentration of 75 μM, used for maternal exposure, was determined empirically using different doses of HCy (i.e. 150, 75, 50 and 15 μM). The minimal teratogenic dose was determined to be 75 μM. […] The single i.p. injection of HCy at E6.75 produced a high number of valve defects (66%), as well as resorptions (46%). […] Because not all embryos within litters are at exactly the same stage of development, the variability of effects seen with either Li or HCy probably reflects the differences in developmental stage.
As a control diet (i.e. normal mouse chow), mice continued to receive 3.3 mg/kg of FA as the baseline to maintain the health of the female mice. […] The animal chow supplemented with 10.5 mg/kg of FA was prepared for us by Harlan Laboratories. As recommended by Harlan, the calculations for the FA level in the special diet are based on the metabolic body weight of mice. Because of the obvious large difference in body weight between humans and mice, and because of the large difference in metabolic rate, Harlan uses the metabolic weight as a method of scaling these differences between species; for mice this was calculated to be BW0.75 (i.e. metabolic weight equals body weight to the 0.75 power). Each mouse consumes approximately 4 g of chow per day; therefore, to obtain the desired dose of 10.5 mg/kg, the inventors added 7.2 mg/kg of FA to the normal 3.3 mg/kg that is present in commercial chow. […]
Doppler ultrasonographic examinations were carried out using the Philips Sonos 5500 (Andover, Mass.) with a 12 MHz transducer and, more recently, with a Vevo 770 (VisualSonics) system. Both instruments provided similar echo patterns. On E15.5, the pregnant mice were anesthetized using a Surgivet Tech 4 anesthesia system (Waukesha, Wis.) with inhalation anesthesia, consisting of 3% isoflurane, administered through a nose cone; the mice were then maintained on 1% isoflurane with 21% oxygen. The mother was placed supine on a heating pad with electrode footpads. The heart rate and temperature of the pregnant mice were monitored using a THM100 (Indus Instruments, Houston, Tex.) during scanning. The body temperature was maintained at 37° C.
Maternal uterine artery blood flow velocity waveforms were obtained and the pulsatility index was calculated. The embryos were visualized and their position mapped in each uterine horn. Blood flow in the heart and blood vessels was detected in each embryo using color Doppler, and blood flow velocity waveforms were obtained using pulsed wave Doppler. Once the embryonic heart was identified by color Doppler, the sample volume of the pulsed Doppler was placed over the entire heart to obtain blood velocities. The gate length was adjusted to completely insonate the beating embryonic heart. The high-pass filter was at its lowest setting of 50 Hz. […]

[2] = tested on: neutral lipid droplets in heart and placenta; assay: Oil Red O staining of neutral lipid droplets in E15.5 heart and placenta; format: in vivo, mouse; conditions: for ORO neutral lipid localization in the placenta: labyrinth and maternal decidua
Excerpt: Oil Red O (ORO), a fat soluble dye, was used to detect neutral lipids (triglycerides, diacylglycerols, and cholesterol esters) in cryosectioned E15.5 cardiac and placental tissues. The staining methodology was followed as published. This method estimates tissue lipid content and localization (Mehlem et al., 2013). Lipid droplets stain red and nuclei blue. Polar lipids (phospholipids, sphingolipids and ceramides) are not stained (Fowler and Greenspan, 1985).

[3] = echo at E15.5 after exposure on E6.75
[4] = echo at E15.5 after single exposure on E6.75
[5] = median, E15.5 after exposure at E6.75

Nc1nc2ncc(CNc3ccc(C(=O)N[C@@H](CCC(=O)O)C(=O)O)cc3)nc2c(=O)[nH]1 [FA, folic acid]
rescue of cardiac defects by baseline FA supplementation ([1]; 3.3 mg/kg of FA in normal mouse chow): does not rescue cardiac defects | normalization of exposure effects by FA provided on E6.75 ([1]; FA i.p. on E6.75): normalized the effects of HCy, but not Li | ORO neutral lipid localization in the placenta [2]: more normal organization of labyrinth

N[C@H]1CCSC1=O [HCy, L-homocysteine thiolactone hydrochloride]
outflow peak velocity, maximum mean value ([1]; E15.5): 84.0 | outflow peak velocity, maximum value ([1]; E15.5): 84.00 cm/s | outflow peak velocity, minimum mean value ([1]; E15.5): 18.5 | outflow peak velocity, minimum value ([1]; E15.5): 18.53 cm/s | AV valve regurgitation, percent of embryos [1, 3]: 10% | SL valve regurgitation, percent of embryos [1, 3]: 53% | both SL and AV valve regurgitation, percent of embryos [1, 3]: 3% | Valve Regurgitation (embryos affected/total) [1, 4]: 39/59 | Valve Regurgitation (percent of embryos) [1, 4]: 66% and 66.1% | Valve Regurgitation (percent of embryos) ([1]; echo at E15.5 after single exposure on E6.75, listed as HCys): 66.1% | minimal teratogenic dose ([1]; maternal exposure, mouse, 150, 75, 50 and 15 μM tested): 75 µM | Embryonic A vel [1, 5]: 40.14 cm/s | Embryonic Descending Aorta PI [1, 5]: 1.99 | Embryonic Ductus Veno sus PI [1, 5]: 0.97 | Embryonic E vel [1, 5]: 12.25 cm/s | Embryonic E/A ratio [1, 5]: 0.30 | Embryonic ET % [1, 5]: 42.51% | Embryonic Heart Rate [1, 5]: 181 beats/min | Embryonic ICT % [1, 5]: 6.56% | Embryonic IRT % [1, 5]: 11.93% | Embryonic MPI [1, 5]: 0.44 | Embryonic OF peak velocity [1, 5]: 39.92 cm/s | Embryonic Umbilical Artery PI [1, 5]: 1.55 | Maternal Heart Rate [1, 5]: #458 beats/min | Maternal Uterine Artery PI [1, 5]: 2.82 | valve defects after i.p. injection on E7.75 ([1]; mouse, in vivo, ip): did not cause any valve defects | ORO staining of neutral lipids in the heart [2]: did not alter ORO staining in the trabeculae | ORO neutral lipid localization in the placenta [2]: patch-like neutral lipid localization
